Data set [1] has as its target T1, Hematopoietic prostaglandin D synthase (Rattus norvegicus, UniProt O35543).
T1 sequence (O35543 whole entry): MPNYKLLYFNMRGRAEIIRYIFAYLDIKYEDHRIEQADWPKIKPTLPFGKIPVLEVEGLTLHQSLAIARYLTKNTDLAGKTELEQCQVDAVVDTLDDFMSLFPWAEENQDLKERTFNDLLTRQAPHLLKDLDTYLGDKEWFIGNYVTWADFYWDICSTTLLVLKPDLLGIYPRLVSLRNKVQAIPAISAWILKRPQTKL
Briefly: Inhibition of H-PGDS in rat RBL cells assessed as reduction in A23187-induced PGD2 production pretreated for 30 mins followed by A23187 addition for 30 mins by RapidFire Mass spectrometry. The format is cell-based.

Data set [2] deals with Hematopoietic prostaglandin D synthase (Homo sapiens, UniProt O60760). Briefly: Inhibition of human H-PGDS expressed in Escherichia coli BL21 DE3 cells assessed as reduction in PGD2 production using PGH2 as substrate by RapidFire High Throughput Mass spectrometry.
Data set [3] has as its target Albumin (Homo sapiens, UniProt P02768). Description: Protein binding in human serum albumin by HPLC analysis. In kind it is ADME, cell-free. The note with it: read-out: PB (converted).
Data set [4] in a line: Dose normalized AUC in mouse at 3 mg/kg, po. In kind it is ADME, organism-based. Also noted: unit not given here. The note with it: in vivo.
Data set [5] can be described thus: Half life in mouse liver microsomes pretreated for 5 mins followed by incubation with NADP for 30 secs and measured upto 45 mins by LC-MS/MS analysis. In kind it is ADME, Microsome. The note with it: time 3030 sec.
Data set [6] in a line: Apparent permeability, Papp of the compound at pH 7.4 incubated for 3 hrs by AMP based liquid chromatography. The format is ADME. The note with it: not told.
Data set [7] in a line: Solubility of the compound in FaSSIF at pH 6.5 measured after 4 hrs by HPLC-UV analysis. In kind it is ADME.

Converted amounts (≈) assume the structure as drawn. Some results are limits rather than exact numbers.

Sequence of Albumin (P02768 whole entry): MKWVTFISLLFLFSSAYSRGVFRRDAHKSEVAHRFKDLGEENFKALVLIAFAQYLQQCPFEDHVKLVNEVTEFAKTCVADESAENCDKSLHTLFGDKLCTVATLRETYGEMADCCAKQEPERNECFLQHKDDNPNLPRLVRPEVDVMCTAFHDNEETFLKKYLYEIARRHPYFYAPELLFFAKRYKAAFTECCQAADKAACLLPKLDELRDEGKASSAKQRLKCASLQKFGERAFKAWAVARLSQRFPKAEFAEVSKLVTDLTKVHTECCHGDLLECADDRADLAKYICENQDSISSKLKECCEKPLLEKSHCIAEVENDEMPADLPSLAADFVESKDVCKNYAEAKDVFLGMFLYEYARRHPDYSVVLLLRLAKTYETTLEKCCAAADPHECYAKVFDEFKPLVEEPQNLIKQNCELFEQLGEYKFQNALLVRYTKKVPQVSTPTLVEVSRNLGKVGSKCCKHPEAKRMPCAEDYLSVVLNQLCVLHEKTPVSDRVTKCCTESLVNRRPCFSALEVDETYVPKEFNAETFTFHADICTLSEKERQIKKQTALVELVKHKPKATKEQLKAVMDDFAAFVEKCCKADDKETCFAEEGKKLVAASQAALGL
Sequence of Hematopoietic prostaglandin D synthase (Homo sapiens, UniProt O60760) (O60760 whole entry): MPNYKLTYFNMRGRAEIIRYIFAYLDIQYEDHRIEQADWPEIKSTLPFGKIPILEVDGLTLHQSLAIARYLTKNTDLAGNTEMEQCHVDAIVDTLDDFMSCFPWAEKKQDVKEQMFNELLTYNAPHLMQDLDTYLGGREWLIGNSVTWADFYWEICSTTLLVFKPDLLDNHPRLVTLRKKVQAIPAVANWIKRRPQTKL

With `CC(C)(O)[C@H]1CC[C@H](NC(=O)c2cnc3nc(C4CC4)c(Cl)cc3c2)CC1`, the EC50 (as a rule, the concentration needed to bring the measured effect to its halfway point) in data set [1] came to 5.2 nM. Moreover, in data set [2], the half-maximal inhibitory concentration (IC50) (in general, the concentration that gives 50% inhibition) was 4.7 nM.

As for `C[C@]1(O)C[C@@H](NC(=O)c2cnc3nc(N4CCC4)ccc3c2)C1`, the EC50 in data set [1] was 17000 nM. Moreover, in data set [2], the IC50 turned out to be 140 nM.

For `CC(C)(O)[C@H]1CC[C@H](NC(=O)c2cnc3nc(C4CC4)ncc3c2)CC1`, the fraction unbound in data set [3] was 0.36. Also, in data set [1], the EC50 amounted to 170 nM. In data set [4], this molecule returned an AUC/dose of 204. In addition, the half-life (commonly the time in which the quantity being followed falls by half) in data set [5] was more than 3 h. In addition, in data set [6], the Papp (as a rule, the rate of passage across a membrane or cell layer, normalised by area and donor concentration) at 3 h is 2.2 ×10⁻⁶ cm/s. For the same molecule, in data set [2], the IC50 amounted to 6.4 nM.

Take `C[C@]1(O)C[C@@H](NC(=O)c2cnc3nc(C4CC4)ccc3c2)C1`: the EC50 in data set [1] came to 1300 nM. For the same molecule, in data set [2], the IC50 is 160 nM.

Turning to `O=C(N[C@H]1CCNC1=O)c1cnc2nc(C3CC3)ccc2c1`, the half-maximal effective concentration (EC50) in data set [1] was 640 nM. Also, the IC50 in data set [2] stood at 44 nM.

As for `C[C@H]1CCN1c1nc2ncc(C(=O)N[C@H]3C[C@](C)(O)C3)cc2cc1Cl`, the EC50 in data set [1] worked out at 4.7 nM. For the same molecule, the IC50 in data set [2] came out at 5 nM.

Turning to `O=C(N[C@H]1CCNC1=O)c1cnc2nc(N3CCC3)ccc2c1`, the EC50 in data set [1] is 6000 nM. Further, the IC50 in data set [2] was found to be 71 nM.

With `CC(C)(O)[C@H]1C[C@H](NC(=O)c2cnc3cc(C4CC4)ncc3c2)C1`, the solubility – broadly, the dissolved amount per volume that the medium holds – at 4 h in data set [7] is 280 µg/mL (≈ 860 µM). Further, the fraction unbound in data set [3] is 0.24. In data set [1], the EC50 came out at 280 nM. The same molecule returned an AUC/dose in data set [4] of 45.3. Besides, the half-life in data set [5] was more than 3 h. The Papp at 3 h in data set [6] turned out to be 13 ×10⁻⁶ cm/s. Further, the half-maximal inhibitory concentration (IC50) in data set [2] worked out at 65 nM.

In the case of `COc1nc2ncc(C(=O)N[C@H]3CC[C@H](C(C)(C)O)CC3)cc2cc1Cl`, the EC50 in data set [1] is 22 nM. Further, in data set [2], the IC50 was found to be 6.6 nM.

Consider `COc1ccc2cc(C(=O)N[C@H]3CC[C@H](C(C)(C)O)CC3)ccc2c1`, for which the 50% effective concentration (EC50) in data set [1] was more than 50000 nM. Further, in data set [2], the IC50 worked out at 1300 nM.

As for `C[C@H]1CCN1c1cc2ncc(C(=O)N[C@H]3CC[C@H](C(C)(C)O)CC3)cc2cn1`, in data set [1], the EC50 is 50 nM. Besides, the IC50 in data set [2] was 4.8 nM.

With `CC(C)(O)[C@]12C[C@@](NC(=O)c3cnc4nc(C5CC5)ccc4c3)(C1)C2`, in data set [7], the solubility at 4 h worked out at 400 µg/mL (≈ 1190 µM). Moreover, the fraction unbound in data set [3] was 0.31. The EC50 in data set [1] is 230 nM. In data set [4], this molecule gave an AUC/dose of 285. Also, the half-life in data set [5] was more than 3 h. In addition, in data set [6], the Papp at 3 h was 3.4 ×10⁻⁶ cm/s. Also, the half-maximal inhibitory concentration (IC50) in data set [2] came to 17 nM.

Regarding `C[C@H]1CCN1c1cc2ncc(C(=O)N[C@H]3CCNC3=O)cc2cn1`, the solubility at 4 h in data set [7] came to 630 µg/mL (≈ 1940 µM). The fraction unbound in data set [3] was 0.44. The EC50 in data set [1] was 260 nM. For the same molecule, the AUC/dose in data set [4] is 715. Besides, the half-life in data set [5] is more than 3 h. Moreover, the Papp at 3 h in data set [6] turned out to be 1.4 ×10⁻⁶ cm/s. Moreover, the IC50 in data set [2] turned out to be 37 nM.

Molecule `CC(C)(O)[C@H]1CC2(C[C@H](NC(=O)c3cnc4nc(C5CC5)ccc4c3)C2)C1` (stereo partly specified) returned a solubility at 4 h in data set [7] of 35 µg/mL (≈ 95.8 µM). Further, the fraction unbound in data set [3] is 0.14. The EC50 in data set [1] came to 32 nM. The AUC/dose in data set [4] is reported as 477. Moreover, the half-life in data set [5] was more than 3 h. For the same molecule, in data set [6], the Papp at 3 h was determined as 4.5 ×10⁻⁶ cm/s. The IC50 in data set [2] worked out at 3.9 nM.

On to `CC(C)(O)C1CC2(CC(NC(=O)c3cnc4nc(C5CC5)ccc4c3)C2)C1` (stereo unspecified), for which the solubility at 4 h in data set [7] was 34 µg/mL (≈ 93 µM). Further, the fraction unbound in data set [3] is 0.14. For the same molecule, in data set [1] (rbl), the EC50 was 29 nM. The AUC/dose in data set [4] was 441. Further, in data set [5], the half-life is more than 3 h. Also, in data set [6], the Papp at 3 h was determined as 5.4 ×10⁻⁶ cm/s. In addition, the IC50 in data set [2] came to 4.9 nM.

Turning to `CC(C)(O)[C@H]1C[C@H](NC(=O)c2cnc3nc(C4CC4)ccc3c2)C1`, the concentration in solution in data set [7] (solubility at 4 h) was 100 µg/mL (≈ 307 µM). Further, in data set [3], the fraction unbound is 0.26. The concentration giving a half-maximal response (EC50) in data set [1] amounted to 280 nM. Besides, the AUC/dose in data set [4] amounted to 77.5. The half-life in data set [5] was more than 3 h. In addition, the IC50 in data set [2] was determined as 36 nM.

Regarding `CC(C)(O)[C@]12C[C@@](NC(=O)c3cnc4cc(C5CC5)ncc4c3)(C1)C2`, the EC50 in data set [1] came to 210 nM. Besides, the IC50 in data set [2] was 38 nM.

Consider `CC(C)(O)[C@H]1CC[C@H](NC(=O)c2cnc3nc(NCC(F)F)ccc3c2)CC1`, for which the EC50 in data set [1] was found to be 12000 nM. For the same molecule, the concentration for half-maximal inhibition (IC50) in data set [2] is 150 nM.

Take `O=C(N[C@H]1CC[C@H](N2CC(F)C2)CC1)c1cnc2cc(C3CC3)ncc2c1`: the solubility at 4 h in data set [7] is more than 1000 µg/mL. The half-maximal effective concentration (EC50) in data set [1] came out at 280 nM. In addition, the AUC/dose in data set [4] worked out at 358. Moreover, the half-life in data set [5] was more than 3 h. Further, the Papp at 3 h in data set [6] came out at 27 ×10⁻⁶ cm/s. In addition, the 50% inhibitory concentration (IC50) in data set [2] was 35 nM.

For `CC(C)c1ccc2cc(C(=O)N[C@H]3CC[C@H](C(C)(C)O)CC3)cnc2n1`, the EC50 in data set [1] turned out to be 64 nM. In addition, the IC50 in data set [2] turned out to be 8.5 nM.

With `C[C@]1(O)C[C@H](NC(=O)c2cnc3nc(C4CC4)ccc3c2)C1`, the EC50 in data set [1] was determined as 7400 nM. The half-inhibitory concentration (IC50) in data set [2] stood at 300 nM.

Consider `C[C@]1(O)C[C@@H](NC(=O)c2cnc3cc(C4CC4)ncc3c2)C1`, for which the half-maximal effective concentration (EC50) in data set [1] was 910 nM. In data set [2], the IC50 amounted to 290 nM.

Turning to `CC(C)(O)[C@H]1CC[C@H](NC(=O)c2cnc3nc(N4CC(F)C4)ccc3c2)CC1`, the EC50 in data set [1] was determined as 1000 nM. Further, the IC50 in data set [2] was 13 nM.

With `CC(C)(O)[C@H]1CC[C@H](NC(=O)c2cnc3nc(OCC(F)(F)F)ccc3c2)CC1`, the EC50 in data set [1] stood at 1100 nM. In addition, the IC50 in data set [2] was 350 nM.

As for `CC(C)(O)[C@H]1CC[C@H](NC(=O)c2cnc3nc(NCC(F)(F)F)ccc3c2)CC1`, the EC50 in data set [1] came to 9600 nM. In data set [2], the IC50 was 690 nM.

For the molecule `C[C@H]1CCN1c1nc2ncc(C(=O)N[C@H]3C[C@H](C(C)(C)O)C3)cc2cc1Cl`, in data set [1], the EC50 is less than 2.5 nM. The IC50 in data set [2] worked out at 3.1 nM.

The molecule `O=C(N[C@H]1CC[C@H](N[C@H](CO)C(F)(F)F)CC1)c1cnc2cc(C3CC3)ncc2c1` displayed a solubility at 4 h in data set [7] of 100 µg/mL (≈ 237 µM). In data set [1], the EC50 came to 310 nM. Moreover, the AUC/dose in data set [4] is on record as 693. In addition, the half-life in data set [5] is more than 3 h. For the same molecule, in data set [6], the Papp at 3 h was 18 ×10⁻⁶ cm/s. Further, in data set [2], the IC50 was found to be 31 nM.

Turning to `C[C@@H]1CCN1c1cc2ncc(C(=O)N[C@H]3CC[C@H](C(C)(C)O)CC3)cc2cn1`, in data set [1], the 50% effective concentration (EC50) was 450 nM. Besides, the IC50 in data set [2] worked out at 160 nM.

With `O=C(N[C@H]1CC[C@H](N2CC(F)(F)C2)CC1)c1cnc2cc(C3CC3)ncc2c1`, the EC50 in data set [1] turned out to be 88 nM. Further, the IC50 in data set [2] was determined as 14 nM.

Take `CC(C)(O)[C@H]1CC[C@H](NC(=O)c2cnc3nc(N4CCC4)c(Cl)cc3c2)CC1`: the EC50 in data set [1] came to 3.9 nM. For the same molecule, the IC50 in data set [2] came out at 2.4 nM.

With `C[C@@H]1CCN1c1ccc2cc(C(=O)N[C@H]3CC[C@H](C(C)(C)O)CC3)cnc2n1`, the EC50 in data set [1] is 3000 nM. Besides, the IC50 in data set [2] was 310 nM.

In the case of `CC(C)(O)[C@H]1CC[C@H](NC(=O)c2cnc3nc(C4CCC4)ccc3c2)CC1`, in data set [1], the EC50 came out at 120 nM. The IC50 in data set [2] is 10 nM.

For `O=C(N[C@H]1CC[C@H](N2CC(F)(F)C2)CC1)c1cnc2nc(C3CC3)ccc2c1`, in data set [1], the EC50 was 50 nM. Further, in data set [2], the IC50 worked out at 14 nM.

As to `C[C@H]1CCN1c1nc2ncc(C(=O)N[C@H]3CC[C@H](C(C)(C)O)CC3)cc2cc1Cl`, the EC50 in data set [1] came out at 3.9 nM. For the same molecule, in data set [2], the 50% inhibitory concentration (IC50) was determined as 3.8 nM.

On to `C[C@H]1CCN1c1nc2ncc(C(=O)N[C@H]3C[C@@](C)(O)C3)cc2cc1Cl`, for which the EC50 in data set [1] is less than 2.5 nM. Besides, the IC50 in data set [2] turned out to be 5 nM.
